According to PubChem BioAssay AID1963834 (Molecular Pharmacology Branch, DTP, NCI, 2024):

System: 873145-292-R-J1-PDC complex spheroid viability
Assay: Anticancer human tumor 873145-292-R-J1-PDC patient-derived renal clear cell carcinoma cell line growth inhibition [POLQ]
Conditions: for IC50: curve of first compound; for viability, T/C: stronger effect = lower value
Procedure, shortened: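 Growth inhibition in 3D: complex spheroids (tumor PDC, HUVEC, MSC) treated with POLQ inhibitor combinations; where Cmax unknown, highest tested concentration 10 microM, except SN-38 at 1 microM.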

[1] = second compound 0.0316 µM, first compound 0.0316 µM
[2] = second compound 0.0316 µM, first compound 0.1 µM
[3] = second compound 0.0316 µM, first compound 0.316 µM
[4] = second compound 0.0316 µM, first compound 1 µM
[5] = second compound 0.1 µM, first compound 0.0316 µM
[6] = second compound 0.1 µM, first compound 0.1 µM
[7] = second compound 0.1 µM, first compound 0.316 µM
[8] = second compound 0.1 µM, first compound 1 µM
[9] = second compound 0.316 µM, first compound 0.0316 µM
[10] = second compound 0.316 µM, first compound 0.1 µM
[11] = second compound 0.316 µM, first compound 0.316 µM
[12] = second compound 0.316 µM, first compound 1 µM
[13] = second compound 1 µM, first compound 0.0316 µM
[14] = second compound 1 µM, first compound 0.1 µM
[15] = second compound 1 µM, first compound 0.316 µM
[16] = second compound 1 µM, first compound 1 µM
[17] = second compound 3.16 µM, first compound 0.0316 µM
[18] = second compound 3.16 µM, first compound 0.1 µM
[19] = second compound 3.16 µM, first compound 0.316 µM
[20] = second compound 3.16 µM, first compound 1 µM
[21] = second compound 10 µM, first compound 0.0316 µM
[22] = second compound 10 µM, first compound 0.1 µM
[23] = second compound 10 µM, first compound 0.316 µM
[24] = second compound 10 µM, first compound 1 µM
[25] = second compound 0.0316 µM, first compound 3.16 µM
[26] = second compound 0.0316 µM, first compound 10 µM
[27] = second compound 0.1 µM, first compound 3.16 µM
[28] = second compound 0.1 µM, first compound 10 µM
[29] = second compound 0.316 µM, first compound 3.16 µM
[30] = second compound 0.316 µM, first compound 10 µM
[31] = second compound 1 µM, first compound 3.16 µM
[32] = second compound 1 µM, first compound 10 µM
[33] = second compound 3.16 µM, first compound 3.16 µM
[34] = second compound 3.16 µM, first compound 10 µM
[35] = second compound 10 µM, first compound 3.16 µM
[36] = second compound 10 µM, first compound 10 µM
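Further: spheroids exposed to compounds for 7 days before viability readout.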
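Wherever viability, T/C is given: luminescence signal used as surrogate for viable cell content; 100% = DMSO vehicle control viability.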

In the case of CCc1c2c(nc3ccc(O)cc13)-c1cc3c(c(=O)n1C2)COC(=O)[C@]3(O)CC + Cc1cccc(N(C)C(=O)C2C(O)CCN2c2nc(C)cc(C(F)(F)F)c2C#N)c1, the IC50 (second compound 0.0316 µM) is reported as 0.0762 µM, the IC50 (second compound 0.1 µM) is reported as 0.0717 µM and the IC50 (second compound 0.316 µM) is reported as 0.0686 µM. The IC50 (second compound 1 µM) was 0.0649 µM, the IC50 (second compound 3.16 µM) was 0.0355 µM and the IC50 (second compound 10 µM) was 0.0744 µM. It also gave a viability, T/C (second compound 0.0316 µM, first compound 0.00316 µM) of 98.7%, a viability, T/C (second compound 0.0316 µM, first compound 0.01 µM) of 80.6% and a viability, T/C [1] of 57.2%. For the same molecule, the viability, T/C [2] was 46.8%, the viability, T/C [3] was 40% and the viability, T/C [4] was 28.6%. The viability, T/C (second compound 0.1 µM, first compound 0.00316 µM) was 103%, the viability, T/C (second compound 0.1 µM, first compound 0.01 µM) was 81.6% and the viability, T/C [5] was 54.2%. The viability, T/C [6] was 46.7%, the viability, T/C [7] was 41.9% and the viability, T/C [8] was 28.2%. It also gave a viability, T/C (second compound 0.316 µM, first compound 0.00316 µM) of 107%, a viability, T/C (second compound 0.316 µM, first compound 0.01 µM) of 91.9% and a viability, T/C [9] of 57.9%. The viability, T/C [10] was 45.3%, the viability, T/C [11] was 39.4% and the viability, T/C [12] was 26.1%. The viability, T/C (second compound 1 µM, first compound 0.00316 µM) was 97.2%, the viability, T/C (second compound 1 µM, first compound 0.01 µM) was 79.8% and the viability, T/C [13] was 64.2%. The viability, T/C [14] was 39.2%, the viability, T/C [15] was 37.9% and the viability, T/C [16] was 29.4%. For the same molecule, the viability, T/C (second compound 3.16 µM, first compound 0.00316 µM) was 95%, the viability, T/C (second compound 3.16 µM, first compound 0.01 µM) was 69.8% and the viability, T/C [17] was 54.1%. The viability, T/C [18] was 36.9%, the viability, T/C [19] was 33.7% and the viability, T/C [20] was 33.2%. For the same molecule, the viability, T/C (second compound 10 µM, first compound 0.00316 µM) was 87.8%, the viability, T/C (second compound 10 µM, first compound 0.01 µM) was 65.6% and the viability, T/C [21] was 56.4%. For the same molecule, the viability, T/C [22] was 47.5%, the viability, T/C [23] was 47.6% and the viability, T/C [24] was 31.7%.
COc1cc(C2c3cc4c(cc3C(OC3OC5COC(C)OC5C(O)C3O)C3COC(=O)C23)OCO4)cc(OC)c1O (stereo unspecified) + Cc1cccc(N(C)C(=O)C2C(O)CCN2c2nc(C)cc(C(F)(F)F)c2C#N)c1 was tested, and the IC50 (second compound 0.0316 µM) was 9.59 µM, the IC50 (second compound 0.1 µM) was greater than 10 µM and the IC50 (second compound 0.316 µM) was 8.71 µM. For the same molecule, the IC50 (second compound 1 µM) was 8.98 µM, the IC50 (second compound 3.16 µM) was 9.5 µM and the IC50 (second compound 10 µM) was greater than 10 µM. The viability, T/C [1] was 97.9%, the viability, T/C [2] was 98.3% and the viability, T/C [3] was 86.8%. For the same molecule, the viability, T/C [4] was 81.4%, the viability, T/C [25] was 68.2% and the viability, T/C [26] was 48.9%. It also gave a viability, T/C [5] of 91.2%, a viability, T/C [6] of 94.5% and a viability, T/C [7] of 87.4%. For the same molecule, the viability, T/C [8] was 90.1%, the viability, T/C [27] was 68.9% and the viability, T/C [28] was 53.5%. It also gave a viability, T/C [9] of 99.6%, a viability, T/C [10] of 97.1% and a viability, T/C [11] of 78.5%. For the same molecule, the viability, T/C [12] was 86.8%, the viability, T/C [29] was 68.3% and the viability, T/C [30] was 46.2%. It also gave a viability, T/C [13] of 94.6%, a viability, T/C [14] of 96.7% and a viability, T/C [15] of 95%. It also gave a viability, T/C [16] of 87%, a viability, T/C [31] of 68.8% and a viability, T/C [32] of 48%. It also gave a viability, T/C [17] of 98.9%, a viability, T/C [18] of 82.5% and a viability, T/C [19] of 91.1%. It also gave a viability, T/C [20] of 85.8%, a viability, T/C [33] of 74% and a viability, T/C [34] of 48.4%. It also gave a viability, T/C [21] of 96.7%, a viability, T/C [22] of 85.3% and a viability, T/C [23] of 81.6%. The viability, T/C [24] was 72.3%, the viability, T/C [35] was 60% and the viability, T/C [36] was 57.1%.
O=c1[nH]cc(F)c(=O)[nH]1 + Cc1cccc(N(C)C(=O)C2C(O)CCN2c2nc(C)cc(C(F)(F)F)c2C#N)c1 showed an IC50 (second compound 0.0316 µM) greater than 10 µM, an IC50 (second compound 0.1 µM) greater than 10 µM and an IC50 (second compound 0.316 µM) greater than 10 µM. For the same molecule, the IC50 (second compound 1 µM) was greater than 10 µM, the IC50 (second compound 3.16 µM) was greater than 10 µM and the IC50 (second compound 10 µM) was greater than 10 µM. The viability, T/C [1] was 106%, the viability, T/C [2] was 104% and the viability, T/C [3] was 99.8%. For the same molecule, the viability, T/C [4] was 102%, the viability, T/C [25] was 115% and the viability, T/C [26] was 93.3%. The viability, T/C [5] was 118%, the viability, T/C [6] was 101% and the viability, T/C [7] was 103%. It also gave a viability, T/C [8] of 109%, a viability, T/C [27] of 97.2% and a viability, T/C [28] of 100%. For the same molecule, the viability, T/C [9] was 98.3%, the viability, T/C [10] was 106% and the viability, T/C [11] was 91.4%. For the same molecule, the viability, T/C [12] was 92.4%, the viability, T/C [29] was 117% and the viability, T/C [30] was 102%. It also gave a viability, T/C [13] of 102%, a viability, T/C [14] of 113% and a viability, T/C [15] of 100%. It also gave a viability, T/C [16] of 95%, a viability, T/C [31] of 109% and a viability, T/C [32] of 96.8%. It also gave a viability, T/C [17] of 93.5%, a viability, T/C [18] of 101% and a viability, T/C [19] of 87.7%. It also gave a viability, T/C [20] of 92.6%, a viability, T/C [33] of 101% and a viability, T/C [34] of 104%. It also gave a viability, T/C [21] of 98.6%, a viability, T/C [22] of 92.9% and a viability, T/C [23] of 94.7%. For the same molecule, the viability, T/C [24] was 98.4%, the viability, T/C [35] was 104% and the viability, T/C [36] was 92%.
